According to DBAASP:
In brackets after ≈: the same amount, converted by molar mass.

What was measured:
Experiment in all cases: ≥ marks a high value that may be exact or a test limit, other limits are often not marked, values filed in µg/mL are converted to µM
[1] = system: Aeromonas salmonicida NCIMB 1102
[2] = system: Psychrobacter immobilis NCIMB 308
Yersinia ruckeri VI-3629 = system: Yersinia ruckeri VI-3629
[3] = system: Planococcus citreus NCIMB 1493
[4] = system: Escherichia coli ATCC 25922
[5] = system: Staphylococcus aureus ATCC 9144
[6] = system: Corynebacterium glutamicum ATCC 13032
[7] = system: Vibrio anguillarum NCIMB 2129
[8] = system: Micrococcus luteus ATCC 4698
[9] = system: Vibrio anguillarum NCIMB 2133
[10] = system: Yersinia ruckeri NCIMB 2196
[11] = system: Vibrio anguillarum VI-F258-3
[12] = system: Listeria fleischmannii DSM 24998
Escherichia coli AB94012 = system: Escherichia coli AB94012
[13] = system: Listeria monocytogenes DSM 20600
[14] = system: Staphylococcus epidermidis P1111
[15] = system: Staphylococcus aureus P1374
Escherichia coli D31 = system: Escherichia coli D31
[16] = system: Staphylococcus aureus DSM 2569
Listeria grayi DSM 20601 = system: Listeria grayi DSM 20601
[17] = system: Micrococcus luteus DSM 20030
[18] = system: Staphylococcus aureus AB94004
[19] = system: Bacillus subtilis AB91021
[20] = system: Staphylococcus aureus P1381
[21] = system: Bacillus thuringiensis AB92037
[22] = system: Staphylococcus aureus P1386
[23] = system: Staphylococcus aureus P1383
[24] = system: Micrococcus luteus AB93113
[25] = system: Staphylococcus epidermidis P1389
[26] = system: Staphylococcus aureus P1369
[27] = system: Pseudomonas aeruginosa AB93066
Listeria innocua = system: Listeria innocua
[28] = system: Batrachochytrium dendrobatidis
Streptococcus uberis = system: Streptococcus uberis
[29] = system: Staphylococcus epidermidis
Pasteurella multocida = system: Pasteurella multocida
Escherichia coli = system: Escherichia coli
Staphylococcus aureus = system: Staphylococcus aureus
Bacillus cereus = system: Bacillus cereus
Leuconostoc lactis = system: Leuconostoc lactis
Micrococcus luteus = system: Micrococcus luteus
[30] = system: Listeria monocytogenes ATCC 19115
[31] = system: Salmonella enterica subsp. enterica serovar Typhimurium ATCC 14028
[32] = system: Staphylococcus aureus ATCC 25923
[33] = system: Staphylococcus aureus ATCC BAA-39
[34] = system: Klebsiella pneumoniae ATCC 13883
[35] = system: Salmonella enterica subsp. enterica serovar Typhimurium ATCC 700408
[36] = system: Staphylococcus aureus ATCC 43300

`CC[C@H](C)[C@H](NC(=O)[C@H](CC(C)C)NC(=O)CNC(=O)[C@@H](NC(=O)[C@@H](NC(=O)[C@H](Cc1cnc[nH]1)NC(=O)[C@H](Cc1cnc[nH]1)NC(=O)[C@H](CC(C)C)NC(=O)[C@@H](N)Cc1ccccc1)[C@@H](C)CC)C(C)C)C(=O)N[C@@H](Cc1cnc[nH]1)C(=O)N[C@@H](Cc1cnc[nH]1)C(=O)NCC(=O)N[C@@H](CC(C)C)C(=O)N[C@@H](CO)C(=O)N[C@@H](CC(C)C)C(=O)N[C@@H](Cc1ccccc1)C(=O)NCC(=O)N[C@@H](CC(=O)O)C(=O)N[C@@H](CCCN=C(N)N)C(=O)N[C@@H](C)C(=O)N[C@@H](CC(=O)O)C(=O)O` [FLHHIVGLIHHGLSLFGDRAD] was tested, and the MIC [1] was 10 µM (≈ 23.5 µg/mL), the MIC [2] was 3.54 µM (≈ 8.33 µg/mL) and the MIC (Yersinia ruckeri VI-3629) was 10 µM (≈ 23.5 µg/mL). For the same compound, the MIC [3] was 10 µM (≈ 23.5 µg/mL), the MIC [4] was over 10 µM and the MIC [5] was 10 µM (≈ 23.5 µg/mL). The MIC [6] was 10 µM (≈ 23.5 µg/mL), the MIC [7] was 10 µM (≈ 23.5 µg/mL) and the MIC [8] was 10 µM (≈ 23.5 µg/mL). The MIC [9] was 10 µM (≈ 23.5 µg/mL), the MIC [10] was 3.54 µM (≈ 8.33 µg/mL) and the MIC [11] was 10 µM (≈ 23.5 µg/mL).
In the case of `CC[C@H](C)[C@H](NC(=O)[C@H](C)NC(=O)[C@H](CO)NC(=O)[C@H](CCCCN)NC(=O)[C@@H](NC(=O)CNC(=O)[C@H](CCC(=O)O)NC(=O)[C@H](Cc1c[nH]c2ccccc12)NC(=O)[C@H](CC(C)C)NC(=O)[C@H](CCCCN)NC(=O)CNC(=O)[C@H](Cc1c[nH]c2ccccc12)NC(=O)[C@H](Cc1ccccc1)NC(=O)CN)C(C)C)C(N)=O` [GFWGKLWEGVKSAI], the MIC [12] is reported as 4 µM (≈ 6.31 µg/mL), the MIC (Escherichia coli AB94012) is reported as 31.7 µM (≈ 50 µg/mL) and the MIC [13] is reported as 8 µM (≈ 12.6 µg/mL). For the same compound, the MIC [14] was 3.96 µM (≈ 6.25 µg/mL), the MIC [15] was 3.96 µM (≈ 6.25 µg/mL) and the MIC (Escherichia coli D31) was 15 µM (≈ 23.7 µg/mL). It also gave an MIC [16] of 15 µM (≈ 23.7 µg/mL), an MIC (Listeria grayi DSM 20601) of 4 µM (≈ 6.31 µg/mL) and an MIC [17] of 2 µM (≈ 3.15 µg/mL). The MIC [18] was 3.96 µM (≈ 6.25 µg/mL), the MIC [19] was 15.8 µM (≈ 25 µg/mL) and the MIC [20] was 15.8 µM (≈ 25 µg/mL). The MIC [21] was 31.7 µM (≈ 50 µg/mL), the MIC [22] was 7.92 µM (≈ 12.5 µg/mL) and the MIC [23] was 7.92 µM (≈ 12.5 µg/mL). The MIC [24] was 15.8 µM (≈ 25 µg/mL), the MIC [25] was 7.92 µM (≈ 12.5 µg/mL) and the MIC [26] was 3.96 µM (≈ 6.25 µg/mL). The MIC [27] was at least 63.4 µM.
`CC[C@H](C)[C@H](NC(=O)CNC(=O)[C@H](CCC(=O)O)NC(=O)[C@@H](NC(=O)[C@@H](NC(=O)CNC(=O)[C@H](CO)NC(=O)[C@H](C)NC(=O)[C@H](CC(C)C)NC(=O)[C@H](CC(=O)O)NC(=O)CNC(=O)[C@H](C)NC(=O)[C@H](C)NC(=O)[C@H](CO)NC(=O)[C@H](CCCCN)NC(=O)[C@@H](NC(=O)[C@H](CCCCN)NC(=O)[C@H](CCC(N)=O)NC(=O)[C@H](Cc1c[nH]c2ccccc12)NC(=O)[C@H](CC(C)C)NC(=O)CN)[C@@H](C)CC)[C@@H](C)CC)C(C)C)C(=O)N[C@@H](CCCCN)C(=O)N[C@@H](CO)C(N)=O` [GLWQKIKSAAGDLASGIVEGIKS] showed an MIC (Listeria innocua) of at least 42.9 µM, an MIC [28] of at least 200 µM and an MIC (Streptococcus uberis) of at least 42.9 µM. The MIC [29] was at least 42.9 µM, the MIC (Pasteurella multocida) was at least 42.9 µM and the MIC (Escherichia coli) was 10.7 µM (≈ 25 µg/mL). For the same compound, the MIC (Staphylococcus aureus) was over 42.9 µM, the MIC (Bacillus cereus) was at least 42.9 µM and the MIC (Leuconostoc lactis) was at least 42.9 µM. It also gave an MIC (Micrococcus luteus) of 5.15 µM (≈ 12 µg/mL).
With `CC(C)C[C@H](NC(=O)[C@H](CCCN=C(N)N)NC(=O)CNC(=O)[C@H](CCC(N)=O)NC(=O)[C@@H]1CCCN1C(=O)[C@H](CC(C)C)NC(=O)[C@H](CCCCN)NC(=O)[C@H](Cc1ccccc1)NC(=O)[C@@H](NC(=O)[C@@H]1CCCN1C(=O)[C@H](CCC(N)=O)NC(=O)[C@H](CO)NC(=O)[C@H](Cc1ccccc1)NC(=O)[C@H](CCCN=C(N)N)NC(=O)[C@@H](N)CCC(N)=O)[C@@H](C)O)C(=O)N[C@H](C(=O)N[C@@H](CC(C)C)C(=O)N[C@@H](CO)C(=O)N[C@@H](CCCN=C(N)N)C(=O)N[C@@H](CCCCN)C(=O)N[C@@H](Cc1ccccc1)C(=O)N[C@@H](CCCN=C(N)N)C(=O)O)[C@@H](C)O` [QRFSQPTFKLPQGRLTLSRKFR] the MIC [30] was 9.29 µM (≈ 25 µg/mL), the MIC [31] was 9.29 µM (≈ 25 µg/mL) and the MIC [32] was 37.1 µM (≈ 100 µg/mL). The MIC [33] was at least 37.1 µM, the MIC [4] was 9.29 µM (≈ 25 µg/mL) and the MIC [34] was 9.29 µM (≈ 25 µg/mL). It also gave an MIC [35] of 9.29 µM (≈ 25 µg/mL) and an MIC [36] of 37.1 µM (≈ 100 µg/mL).
